Assay results taken from patent US9434994B2, “Methods for prediction of clinical outcome to epidermal growth factor receptor inhibitors by non-small cell lung cancer patients” (The Regents of the University of Colorado, a body corporate, priority 2004, dated 2016).
Like-named read-outs stand apart in the source and are kept apart here.

Tested on: NSCLC patients
[1] = EGFR FISH+/EGFR mutation+ (17 patients)
[2] = FISH +, IHC +, EGFR Mut +, n 12
[3] = FISH +, IHC +, EGFR Mut −, n 20
[4] = FISH −, IHC +, EGFR Mut +, n 12
[5] = FISH −, IHC +, EGFR Mut −, n 39
[6] = FISH −, IHC −, EGFR Mut −, n 37
[7] = FISH+ or EGFR + (EGFR mutation), 46 pts
[8] = FISH+/EGFR+ (EGFR mutation), 17 pts
[9] = FISH−/EGFR− (EGFR mutation), 80 pts
[10] = triple positive: EGFR FISH, EGFR IHC, P-AKT
[11] = triple positive: EGFR FISH, IHC, mutation (12 patients)

Excerpt: In order to make a more substantial statistical analysis and power, the inventors have analyzed the combined data set, which includes altogether 204 patients with NSCLC.
The multivariable analysis is based on an initial univariable analysis including clinical- and biological markers by using backward stepwise regression methods. All univariately significant covariates were included in the stepwise selection.

COc1cc2ncnc(Nc3ccc(F)c(Cl)c3)c2cc1OCCCN1CCOCC1 [gefitinib]
HR, survival, multivariable (Current/Former smokers): 2.68
DC (disease control) (EGFR FISH+): 65%
MS (95% CI) (EGFR FISH+): 18 (14-21) months
OR (overall response) (EGFR FISH+): 33%
TTP, median (95% CI) (EGFR FISH+): 9 (5-10) months
1-yr survival (EGFR FISH+ or IHC+): 44% (33-55)
DCR (EGFR FISH+ or IHC+): 43%
MS (EGFR FISH+ or IHC+): 11 (7-15) mo
RSP (EGFR FISH+ or IHC+): 10%
TTP (EGFR FISH+ or IHC+): 3 (2-5) mo
Disease Control Rate [1]: 69%
response rate [1]: 69%
time to progression [1]: 16 months
Median Survival (EGFR FISH+/EGFR mutation+, not yet achieved): exceeding 20 months
DCR (EGFR FISH+/IHC+): 76%
MS (EGFR FISH+/IHC+): 21 (15-21) mo
RSP (EGFR FISH+/IHC+): 41%
TTP (EGFR FISH+/IHC+): 9 (6-16) mo
DC (disease control) (EGFR FISH-): 30%
MS (95% CI) (EGFR FISH-): 8 (6-11) months
OR (overall response) (EGFR FISH-): 6%
TTP, median (95% CI) (EGFR FISH-): 3 (2-3) months
Disease Control Rate (EGFR FISH-/EGFR mutation-): 29%
response rate (EGFR FISH-/EGFR mutation-): 3%
time to progression (EGFR FISH-/EGFR mutation-): 3 month
DCR (EGFR FISH-/IHC-): 17%
MS (EGFR FISH-/IHC-): 6 (4-8) mo
RSP (EGFR FISH-/IHC-): 2%
TTP (EGFR FISH-/IHC-): 2 (2-3) mo
DC (disease control) (EGFR IHC+): 56%
MS (95% CI) (EGFR IHC+): 14 (11-21) months
OR (overall response) (EGFR IHC+): 22%
TTP, median (95% CI) (EGFR IHC+): 5 (3-7) months
DC (disease control) (EGFR IHC-): 27%
HR, survival, multivariable (EGFR IHC-): 1.70
MS (95% CI) (EGFR IHC-): 7 (5-10) months
OR (overall response) (EGFR IHC-): 5%
TTP, median (95% CI) (EGFR IHC-): 3 (2-3) months
DC (disease control) (EGFR Mutation+): 52%
MS (95% CI) (EGFR Mutation+): 13 (6-21)
OR (overall response) (EGFR Mutation+): 39%
TTP, median (95% CI) (EGFR Mutation+): 3 (2-11)
DC (disease control) (EGFR Mutation-): 37%
MS (95% CI) (EGFR Mutation-): 11 (7-13)
OR (overall response) (EGFR Mutation-): 7%
TTP, median (95% CI) (EGFR Mutation-): 3 (2-4)
1-yr survival (EGFR mutation+ or IHC+): 50% (39-61)
DCR (EGFR mutation+ or IHC+): 47%
MS (EGFR mutation+ or IHC+): 12 (8-15) mo
RSP (EGFR mutation+ or IHC+): 12%
TTP (EGFR mutation+ or IHC+): 3 (2-5) mo
1-yr survival (EGFR mutation+/IHC+): 63% (45-81)
MS (EGFR mutation+/IHC+): 21 (10-21) mo
RSP (EGFR mutation+/IHC+): 50%
TTP (EGFR mutation+/IHC+): 10 (2-16) mo
MS (EGFR mutation-/IHC-): 7 (5-12) mo
RSP (EGFR mutation-/IHC-): 2%
TTP (EGFR mutation-/IHC-): 2 (2-3) mo
1-yr surv [2]: 100%
DCR [2]: 78%
OR (response rate) [2]: 78%
TTP [2]: 20 (11-20) months
1-yr surv [3]: 64% (42-86)
OR (response rate) [3]: 22%
OS (median survival) [3]: 15 (6-16) months
TTP [3]: 5 (3-12) months
1-yr surv (FISH +, IHC +, P-AKT +, N 34): 84% (70-97)
DCR (FISH +, IHC +, P-AKT +, N 34): 80%
OR (response rate) (FISH +, IHC +, P-AKT +, N 34): 43%
TTP (FISH +, IHC +, P-AKT +, N 34): 12 (6-19) months
1-yr surv (FISH +, IHC +, P-AKT −, N 4): 75% (33-100)
OR (response rate) (FISH +, IHC +, P-AKT −, N 4): 0%
OS (median survival) (FISH +, IHC +, P-AKT −, N 4): 18 (5-18) months
TTP (FISH +, IHC +, P-AKT −, N 4): 9 (2-9) months
1-yr surv (FISH +, IHC −, EGFR Mut +, n 5): 60% (17-100)
DCR (FISH +, IHC −, EGFR Mut +, n 5): 50%
OR (response rate) (FISH +, IHC −, EGFR Mut +, n 5): 50%
TTP (FISH +, IHC −, EGFR Mut +, n 5): 3 (2-9) months
1-yr surv (FISH +, IHC −, EGFR Mut −, n 8): 38% (7-66)
DCR (FISH +, IHC −, EGFR Mut −, n 8): 39%
OR (response rate) (FISH +, IHC −, EGFR Mut −, n 8): 0%
OS (median survival) (FISH +, IHC −, EGFR Mut −, n 8): 9 (1-9) months
TTP (FISH +, IHC −, EGFR Mut −, n 8): 2 (1-6) months
1-yr surv (FISH +, IHC −, P-AKT +, N 15): 53% (28-79)
DCR (FISH +, IHC −, P-AKT +, N 15): 46%
OR (response rate) (FISH +, IHC −, P-AKT +, N 15): 15%
OS (median survival) (FISH +, IHC −, P-AKT +, N 15): 14 (3-19) months
TTP (FISH +, IHC −, P-AKT +, N 15): 3 (2-6) months
1-yr surv (FISH +, IHC −, P-AKT −, N 2): 0% (0-69)
DCR (FISH +, IHC −, P-AKT −, N 2): 0%
OR (response rate) (FISH +, IHC −, P-AKT −, N 2): 0%
OS (median survival) (FISH +, IHC −, P-AKT −, N 2): 9 (NA) months
TTP (FISH +, IHC −, P-AKT −, N 2): 2 (NA) months
1-yr surv [4]: 42% (1470)
DCR [4]: 44%
OR (response rate) [4]: 22%
OS (median survival) [4]: 11 (3-11) months
TTP [4]: 4 (2-7) months
1-yr surv [5]: 49% (33-64)
DCR [5]: 41%
OR (response rate) [5]: 3%
OS (median survival) [5]: 11 (8-18) months
TTP [5]: 3 (2-5) months
1-yr surv (FISH −, IHC +, P-AKT +, N 35): 43% (26-59)
DCR (FISH −, IHC +, P-AKT +, N 35): 47%
OR (response rate) (FISH −, IHC +, P-AKT +, N 35): 13%
OS (median survival) (FISH −, IHC +, P-AKT +, N 35): 11 (6-15) months
TTP (FISH −, IHC +, P-AKT +, N 35): 4 (2-6) months
1-yr surv (FISH −, IHC +, P-AKT −, N 23): 47% (27-68)
DCR (FISH −, IHC +, P-AKT −, N 23): 50%
OR (response rate) (FISH −, IHC +, P-AKT −, N 23): 6%
OS (median survival) (FISH −, IHC +, P-AKT −, N 23): 9 (7-9) months
TTP (FISH −, IHC +, P-AKT −, N 23): 4 (2-7) months
1-yr surv (FISH −, IHC −, EGFR Mut +, n 6): 0% (0-30)
DCR (FISH −, IHC −, EGFR Mut +, n 6): 0%
OR (response rate) (FISH −, IHC −, EGFR Mut +, n 6): 0%
OS (median survival) (FISH −, IHC −, EGFR Mut +, n 6): 3 (1-3) months
TTP (FISH −, IHC −, EGFR Mut +, n 6): 2 (1-2) months
1-yr surv [6]: 37% (21-52)
DCR [6]: 21%
OR (response rate) [6]: 3%
OS (median survival) [6]: 6 (4-12) months
TTP [6]: 2 (2-3) months
1-yr surv (FISH −, IHC −, P-AKT +, N 32): 29% (13-44)
DCR (FISH −, IHC −, P-AKT +, N 32): 18%
OR (response rate) (FISH −, IHC −, P-AKT +, N 32): 4%
OS (median survival) (FISH −, IHC −, P-AKT +, N 32): 6 (4-10) months
TTP (FISH −, IHC −, P-AKT +, N 32): 2 (2-3) months
1-yr surv (FISH −, IHC −, P-AKT −, N 17): 29% (8-51)
DCR (FISH −, IHC −, P-AKT −, N 17): 14%
OR (response rate) (FISH −, IHC −, P-AKT −, N 17): 0%
OS (median survival) (FISH −, IHC −, P-AKT −, N 17): 6 (4-12) months
TTP (FISH −, IHC −, P-AKT −, N 17): 2 (2-5) months
1-yr (1-year survival) [7]: 45% (30-59)
MS (mo) (median survival) [7]: 10 (5-14) mo
RSP (response rate) [7]: 15%
TTP (mo) (time to progression) [7]: 3 (2-5) mo
1-yr (1-year survival) [8]: 67% (71-100)
RSP (response rate) [8]: 69%
TTP (mo) (time to progression) [8]: 16 (3-20) mo
1-yr (1-year survival) [9]: 42% (31-53)
DCR (disease control rate) [9]: 29%
MS (mo) (median survival) [9]: 10 (6-13) mo
RSP (response rate) [9]: 3%
TTP (mo) (time to progression) [9]: 3 (2-3) mo
1-yr OS (KRAS Mutation+): 49% (33%-66%)
DC (disease control) (KRAS Mutation+): 39%
MS (95% CI) (KRAS Mutation+): 11 (6-23)
OR (overall response) (KRAS Mutation+): 7%
TTP, median (95% CI) (KRAS Mutation+): 3 (2-4)
1-yr OS (KRAS Mutation-): 50% (40%-60%)
DC (disease control) (KRAS Mutation-): 40%
MS (95% CI) (KRAS Mutation-): 12 (8-15)
TTP, median (95% CI) (KRAS Mutation-): 3 (2-4)
DC (disease control) (P-AKT+): 49%
MS (95% CI) (P-AKT+): 13 (10-16)
TTP, median (95% CI) (P-AKT+): 4 (3-5)
1-yr survival (P-AKT+ or EGFR IHC+): 43% (32-54)
DCR (P-AKT+ or EGFR IHC+): 34%
MS (P-AKT+ or EGFR IHC+): 8 (6-14) mo
RSP (P-AKT+ or EGFR IHC+): 6%
TTP (P-AKT+ or EGFR IHC+): 3 (2-3) mo
1-yr survival (P-AKT+/EGFR IHC+): 63% (51-74)
MS (P-AKT+/EGFR IHC+): 16 (12-21) mo
RSP (P-AKT+/EGFR IHC+): 30%
TTP (P-AKT+/EGFR IHC+): 6 (4-10) mo
DC (disease control) (P-AKT-): 33%
MS (95% CI) (P-AKT-): 8 (6-14)
OR (overall response) (P-AKT-): 2%
TTP, median (95% CI) (P-AKT-): 3 (2-5)
DCR (P-AKT-/EGFR IHC-): 21%
MS (P-AKT-/EGFR IHC-): 6 (5-9) mo
TTP (P-AKT-/EGFR IHC-): 2 (2-4) mo
Disease Control Rate (both cohorts, total): 43%
Median Survival (both cohorts, total): 11 (8-14)
Median Time to Progression (both cohorts, total): 3 (3-4)
One-YR Survival (both cohorts, total): 48% (41-55)
Overall Response (both cohorts, total): 15%
HR, survival, multivariable (performance status 2): 3.64
Disease Control Rate [10]: 80%
response rate [10]: 43%
time to progression [10]: 12 months
Median Survival (triple positive: EGFR FISH, EGFR IHC, P-AKT, not achieved yet): exceeding 20 months
1-year survival [11]: 100%
Disease Control Rate [11]: 78%
response rate [11]: 78%
time to progression [11]: 20 months
Median Survival (triple positive: EGFR FISH, IHC, mutation, not yet achieved): exceeding 20 months
